Laboratory results from ChEMBL document CHEMBL1201862, “PubChem BioAssay data set” (2004).
Activity calls are given as the source filed them.

Columns and labels:
[1] = target: T1, G-protein coupled receptor 55 (Homo sapiens, UniProt Q9Y2T6); assay: GPR55 antagonist potency of analogs, SAR follow-up, imaging, U2OS, beta-arrestin-GFP, LPI agonist, set 2 (AID 2820); format: functional
Streptokinase A = target: T2, Streptokinase A (Streptococcus pyogenes serotype M1, UniProt P10520); assay: S. pyogenes streptokinase expression inhibitors, potency, dose response, plasminogen activation absorbance, OD405 (AID 1914); format: functional, Streptococcus pyogenes M1 GAS;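 note: secreted streptokinase activity via plasminogen activation per viability signal from cell pellet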
T2 sequence (P10520 whole entry): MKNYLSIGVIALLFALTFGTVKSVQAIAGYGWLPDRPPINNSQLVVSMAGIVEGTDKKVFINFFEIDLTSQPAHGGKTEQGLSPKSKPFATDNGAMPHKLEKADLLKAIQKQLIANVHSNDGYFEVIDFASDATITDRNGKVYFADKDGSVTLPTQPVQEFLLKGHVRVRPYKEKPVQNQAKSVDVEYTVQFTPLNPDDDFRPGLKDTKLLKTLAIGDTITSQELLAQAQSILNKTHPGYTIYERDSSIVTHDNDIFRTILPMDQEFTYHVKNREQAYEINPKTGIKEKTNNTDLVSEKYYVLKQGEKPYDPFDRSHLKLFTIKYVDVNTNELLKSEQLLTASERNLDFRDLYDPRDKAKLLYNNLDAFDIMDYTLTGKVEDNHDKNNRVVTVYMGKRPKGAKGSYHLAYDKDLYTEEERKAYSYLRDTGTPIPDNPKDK

Cannabinoid receptor 1 [2] = target: T3, Cannabinoid receptor 1 (Homo sapiens, UniProt P21554); assay: SAR analysis of agonists of the Cannabinoid Receptor 1 using an Image-Based Assay - Set 2. [Related pubchem assays (depositor defined):AID2013, AID2026]; format: functional
T3 sequence (P21554 whole entry): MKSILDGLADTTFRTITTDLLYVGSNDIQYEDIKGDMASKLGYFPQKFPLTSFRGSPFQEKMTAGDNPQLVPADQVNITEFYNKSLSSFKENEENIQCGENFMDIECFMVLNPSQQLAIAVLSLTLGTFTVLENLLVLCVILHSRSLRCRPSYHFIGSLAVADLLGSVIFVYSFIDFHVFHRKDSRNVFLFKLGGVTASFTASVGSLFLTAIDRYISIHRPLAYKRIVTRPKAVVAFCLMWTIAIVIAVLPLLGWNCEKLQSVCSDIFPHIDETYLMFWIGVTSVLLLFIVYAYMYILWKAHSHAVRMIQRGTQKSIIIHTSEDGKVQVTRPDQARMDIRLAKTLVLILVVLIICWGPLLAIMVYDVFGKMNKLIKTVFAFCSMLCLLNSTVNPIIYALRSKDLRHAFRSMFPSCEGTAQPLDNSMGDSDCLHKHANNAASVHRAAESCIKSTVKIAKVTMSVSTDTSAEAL

Streptococcus = assay: Group A Streptococcus viability loss, dose response, counter-screen for streptokinase expression inhibitor project, luminescence, BacTiterGlo (AID 1915); format: functional, organism-based;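 note: potency for reduction of bacterial viability or growth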
[3] = target: T4, G-protein coupled receptor 35 (Homo sapiens, UniProt Q9HC97); assay: SAR analysis of Antagonists of the GPR35 Receptor using an Image-Based Assay - Set 3. [Related pubchem assays (depositor defined):AID2013, AID2026]; format: functional
T4 sequence (Q9HC97 whole entry): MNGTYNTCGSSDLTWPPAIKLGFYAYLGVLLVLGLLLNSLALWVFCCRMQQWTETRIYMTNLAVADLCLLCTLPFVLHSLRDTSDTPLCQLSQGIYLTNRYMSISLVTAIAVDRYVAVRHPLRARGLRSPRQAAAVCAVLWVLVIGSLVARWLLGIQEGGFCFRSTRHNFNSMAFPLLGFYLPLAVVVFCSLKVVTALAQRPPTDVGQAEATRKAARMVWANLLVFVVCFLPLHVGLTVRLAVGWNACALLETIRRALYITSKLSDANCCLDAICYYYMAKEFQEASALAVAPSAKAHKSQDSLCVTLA

Cannabinoid receptor 1 [4] = target: T3, Cannabinoid receptor 1; assay: SAR analysis of antagonists of the Cannabinoid Receptor 1 using an Image-Based Assay - Set 2. [Related pubchem assays (depositor defined):AID2013, AID2026]; format: functional
Cannabinoid receptor 2 [5] = target: T5, Cannabinoid receptor 2 (Homo sapiens, UniProt P34972); assay: SAR analysis of antagonists of the Cannabinoid Receptor 2 using an Image-Based Assay. [Related pubchem assays (depositor defined):AID2013, AID2026]; format: functional
T5 sequence (P34972 whole entry): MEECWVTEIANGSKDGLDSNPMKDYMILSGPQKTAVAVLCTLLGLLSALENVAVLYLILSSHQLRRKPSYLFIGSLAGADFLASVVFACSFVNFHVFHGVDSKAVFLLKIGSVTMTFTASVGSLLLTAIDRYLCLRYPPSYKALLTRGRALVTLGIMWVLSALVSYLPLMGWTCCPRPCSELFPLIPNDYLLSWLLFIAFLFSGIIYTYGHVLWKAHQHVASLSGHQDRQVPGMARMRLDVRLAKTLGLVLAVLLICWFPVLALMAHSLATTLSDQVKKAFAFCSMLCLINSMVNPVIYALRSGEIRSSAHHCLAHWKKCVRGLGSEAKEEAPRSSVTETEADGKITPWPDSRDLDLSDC

[6] = target: T4, G-protein coupled receptor 35; assay: SAR analysis of Agonists of the GPR35 Receptor using an Image-Based Assay - Set 2. [Related pubchem assays (depositor defined):AID2013, AID2026]; format: functional
Cannabinoid receptor 2 [7] = target: T5, Cannabinoid receptor 2; assay: SAR analysis of agonists of the Cannabinoid Receptor 2 using an Image-Based Assay. [Related pubchem assays (depositor defined):AID2013, AID2026]; format: functional
[8] = target: T1, G-protein coupled receptor 55; assay: GPR55 antagonists blocking LPI-driven arrestin recruitment, primary screen, imaging, U2OS, beta-arrestin-GFP, LPI agonist (AID 2013); format: functional;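 note: antagonist potency measured as reduced agonist-driven arrestin aggregation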
[9] = test system: Streptococcus sp. 'group A'; assay: growth inhibition of control SK(-) GAS strain, dose response, counter-screen for streptokinase expression inhibitor project, luminescence, kanamycin, BacTiterGlo, confirmation (AID 1900); format: functional, organism-based
[10] = target: T6, Tyrosine-protein phosphatase non-receptor type 22 (Homo sapiens, UniProt Q9Y2R2); assay: SAR LYP1 Fluorescent Assay using pCAP substrate for In Vitro dose response studies - Set 2. [Related pubchem assays (depositor defined):AID1779, AID1784, AID2135, AID449727]; format: functional
T6 sequence (Q9Y2R2 whole entry): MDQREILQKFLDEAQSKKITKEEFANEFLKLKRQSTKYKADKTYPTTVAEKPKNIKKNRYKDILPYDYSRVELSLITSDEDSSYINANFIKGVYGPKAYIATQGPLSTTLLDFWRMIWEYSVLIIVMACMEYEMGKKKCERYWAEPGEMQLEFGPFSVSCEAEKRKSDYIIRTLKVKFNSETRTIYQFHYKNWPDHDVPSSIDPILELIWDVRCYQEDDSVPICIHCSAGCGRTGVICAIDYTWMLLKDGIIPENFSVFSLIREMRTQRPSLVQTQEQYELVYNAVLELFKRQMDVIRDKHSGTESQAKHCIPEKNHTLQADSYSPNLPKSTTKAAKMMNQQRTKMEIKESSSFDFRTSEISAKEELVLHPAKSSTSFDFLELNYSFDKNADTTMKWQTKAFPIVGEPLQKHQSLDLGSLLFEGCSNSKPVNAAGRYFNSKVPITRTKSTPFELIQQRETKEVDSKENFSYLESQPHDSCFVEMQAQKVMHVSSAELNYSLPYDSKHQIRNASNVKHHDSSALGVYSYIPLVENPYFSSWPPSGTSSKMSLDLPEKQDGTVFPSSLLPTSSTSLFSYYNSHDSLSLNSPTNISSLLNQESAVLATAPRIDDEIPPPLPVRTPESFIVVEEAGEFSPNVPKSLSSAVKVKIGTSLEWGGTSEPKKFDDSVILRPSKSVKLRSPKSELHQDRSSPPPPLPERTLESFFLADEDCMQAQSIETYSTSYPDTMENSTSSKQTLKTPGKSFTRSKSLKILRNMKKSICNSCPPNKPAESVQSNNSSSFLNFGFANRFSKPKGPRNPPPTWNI

[11] = target: T7, Tyrosine-protein phosphatase non-receptor type 7 (Homo sapiens, UniProt P35236); assay: HePTP (PTPN7) phosphatase inhibitor potency, SAR follow-up, biochemical, set 2 (AID 449736); format: functional
T7 sequence (P35236 whole entry): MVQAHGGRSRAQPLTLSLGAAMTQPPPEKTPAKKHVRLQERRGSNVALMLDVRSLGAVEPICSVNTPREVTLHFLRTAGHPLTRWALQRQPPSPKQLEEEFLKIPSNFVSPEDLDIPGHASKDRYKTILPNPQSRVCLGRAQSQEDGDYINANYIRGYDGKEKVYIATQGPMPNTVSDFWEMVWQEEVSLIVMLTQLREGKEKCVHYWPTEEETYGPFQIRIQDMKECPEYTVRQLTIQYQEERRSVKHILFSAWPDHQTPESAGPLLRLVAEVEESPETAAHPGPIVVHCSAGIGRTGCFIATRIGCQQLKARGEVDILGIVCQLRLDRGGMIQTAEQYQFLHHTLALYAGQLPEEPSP

[12] = target: T6, Tyrosine-protein phosphatase non-receptor type 22; assay: SAR LYP1 Fluorescent Assay using OMFP substrate for In Vitro dose response studies - Set 3. [Related pubchem assays (depositor defined):AID1779, AID1784, AID2140, AID2686]; format: functional
[13] = target: Tyrosine-protein phosphatase non-receptor type 12 (Homo sapiens, UniProt Q05209); assay: SAR Selectivity Analysis of small molecule inhibitors of PEST using pCAP in a fluorescence assay. [Related pubchem assays (depositor defined):AID1779, AID1784, AID2135]; format: functional
Chain of Tyrosine-protein phosphatase non-receptor type 12 (Q05209 whole entry): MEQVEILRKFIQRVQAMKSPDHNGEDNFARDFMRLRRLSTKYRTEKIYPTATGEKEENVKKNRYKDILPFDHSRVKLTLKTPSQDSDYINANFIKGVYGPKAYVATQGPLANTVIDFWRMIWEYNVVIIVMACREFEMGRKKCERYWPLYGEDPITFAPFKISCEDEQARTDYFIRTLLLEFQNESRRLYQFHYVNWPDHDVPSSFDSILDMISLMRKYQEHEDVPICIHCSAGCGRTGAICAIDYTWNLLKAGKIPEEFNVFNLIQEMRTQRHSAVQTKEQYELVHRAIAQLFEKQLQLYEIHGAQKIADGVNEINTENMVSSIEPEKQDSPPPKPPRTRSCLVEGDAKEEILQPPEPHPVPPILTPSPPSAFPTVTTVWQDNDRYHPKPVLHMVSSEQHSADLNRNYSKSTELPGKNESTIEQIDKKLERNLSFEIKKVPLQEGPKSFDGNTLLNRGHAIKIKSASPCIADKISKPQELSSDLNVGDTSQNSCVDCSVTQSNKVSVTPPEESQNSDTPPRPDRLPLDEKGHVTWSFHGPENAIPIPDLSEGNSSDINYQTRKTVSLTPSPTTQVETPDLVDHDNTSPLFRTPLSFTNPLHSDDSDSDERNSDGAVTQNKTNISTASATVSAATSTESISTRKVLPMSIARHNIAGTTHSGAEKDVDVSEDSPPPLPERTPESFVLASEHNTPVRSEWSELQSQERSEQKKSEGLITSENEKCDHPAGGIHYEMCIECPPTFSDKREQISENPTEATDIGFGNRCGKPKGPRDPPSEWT

[14] = target: T6, Tyrosine-protein phosphatase non-receptor type 22; assay: PubChem AID 2135
[15] = target: T6, Tyrosine-protein phosphatase non-receptor type 22; assay: SAR LYP1 Fluorescent Assay using OMFP substrate for In Vitro dose response studies - Set 2. [Related pubchem assays (depositor defined):AID1779, AID1784, AID2140, AID449726, AID488869]; format: functional
[16] = target: T6, Tyrosine-protein phosphatase non-receptor type 22; assay: LYP (PTPN22) phosphatase inhibitor potency, SAR follow-up, biochemical, pCAP fluorogenic substrate, fluorescence, set 3 (AID 449727); format: functional

T1 sequence (Q9Y2T6 whole entry): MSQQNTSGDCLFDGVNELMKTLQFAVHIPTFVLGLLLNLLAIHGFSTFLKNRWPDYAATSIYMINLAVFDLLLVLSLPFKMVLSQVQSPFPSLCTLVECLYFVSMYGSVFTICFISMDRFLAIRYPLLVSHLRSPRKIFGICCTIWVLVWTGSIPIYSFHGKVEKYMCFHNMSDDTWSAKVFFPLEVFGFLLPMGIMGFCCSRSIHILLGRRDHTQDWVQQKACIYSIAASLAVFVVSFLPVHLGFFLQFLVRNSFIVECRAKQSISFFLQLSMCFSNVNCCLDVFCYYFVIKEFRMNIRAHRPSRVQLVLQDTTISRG

`Cc1ccc(-n2cc3c(-c4cccc(Br)c4)nnc(C)c3n2)cc1` was tested, and the IC50 [1] was 1.24 µM (active), the EC50 (Streptokinase A) was 94.1 µM (active) and the EC50 (Cannabinoid receptor 1 [2]) was > 32 µM (inactive). For the same compound, the EC50 (Streptococcus) was 46.9 µM (active), the IC50 [3] was > 32 µM (inactive) and the IC50 (Cannabinoid receptor 1 [4]) was 2.94 µM (active). For the same compound, the IC50 (Cannabinoid receptor 2 [5]) was 23.8 µM (inactive), the EC50 [6] was > 32 µM (inactive) and the EC50 (Cannabinoid receptor 2 [7]) was > 32 µM (inactive). The IC50 [8] was 2.21 µM (active) and the EC50 [9] was 7.37 µM (active).
For `N#C/C(=C/c1ccc(OCc2ccc(F)cc2)c(Br)c1)c1ccc(C(=O)O)cc1`, the IC50 [10] was 10.8 µM (active), the IC50 [11] was 1.36 µM (active) and the IC50 [12] was 37 µM (active). The IC50 [13] was 7.56 µM (active), the IC50 [14] was 4.37 µM (active) and the IC50 [15] was 13.7 µM (active). For the same compound, the IC50 [16] was 15.8 µM (active).
